{"source": "patent US8846928B2", "about": "(Portola Pharmaceuticals, Inc., priority 2010, dated 2014)"}
{"target": "T1, full length active recombinant SYK enzyme (Homo sapiens, UniProt P43405)", "T1 construct": "full length active recombinant SYK enzyme (Millipore, Calif.); purchased Millipore", "test": "Inhibition of Syk tyrosine phosphorylation activity (LANCE TR-FRET kinase assay)", "assay_type": "biochemical", "description": "Inhibition of Syk Tyrosine Phosphorylation Activity\nPotency of candidate molecules for inhibiting Syk tyrosine phosphorylation activity is assessed by measuring the ability of a test compound to inhibit Syk-mediated tyrosine phosphorylation of a Syk-specific substrate.\nSYK tyrosine phosphorylation activity is measured using the LANCE™ Technology developed by Perkin Elmer Life and Analytical Sciences (Boston, Mass.). LANCE™ refers to homogeneous time resolved fluorometry applications using techniques such as time-resolved fluorescence resonance energy transfer assay (TR-FRET) (see generally for procedures in Perkin Elmer Application Note—How to Optimize a Tyrosine Kinase Assay Using Time Resolved Fluorescence-Based LANCE Detection, wwww.perkinelmer.com/lifesciences). The assay principle involves detection of a phosphorylated substrate using energy transfer from a phosphospecific europium-labeled antibody to streptavidin-allophycocyanin as an acceptor.\nTo test the ability of candidate molecules to inhibit SYK tyrosine phosphorylation activity, molecules are reconstituted in 30% DMSO and serially diluted 1:3 with the final dilution containing DMSO in the absence of the candidate molecule. The final DMSO concentration in the assay is 3%. Kinase assays are performed as a two part reaction. […] The second reaction involves termination of the kinase reaction and the simultaneous addition of the detection reagents—europium-labeled anti-phosphotyrosine reagent (Eu-W1024-PY100, Perkin Elmer, Boston, Mass.) and Streptavidin-Allophycocyanin detection reagent (SA-APC, Prozyme, Calif.). The kinase reaction is performed in a black U-bottom 96-well microtitre plate. The final reaction volume is 50 μL and contains a final concentration of 1 nM active SYK enzyme, 550 nM SYK-substrate, and 100 μM ATP diluted in a buffer containing 50 mM Tris pH 7.5, 5 mM MgCl2, and 1 mM DTT. The reaction is allowed to proceed for 1 hour at room temperature. The quench buffer contains 100 mM Tris pH 7.5, 300 mM NaCl2, 20 mM EDTA, 0.02% Brij35, and 0.5% BSA. The detection reagents are added to the reaction mixture at the following dilutions-1:500 for Eu-W1024-PY100 and 1:250 for SA-APC. The kinase reaction is terminated by the addition of 50 μL quench buffer containing the detection reagents. The detection is allowed to proceed for 1 hr at room temperature. Detection of the phosphorylated substrate in the absence and presence of inhibitors is measured in the TR-FRET instrument, Analyst HT (Molecular Probes, Sunnyvale, Calif.) and the condition for measurements are set up using CriterionHost Release 2.0 (Molecular Probes, Sunnyvale, Calif.). The settings used are a follows: excitation 360 nm, emission 665-7.5 nm, beam splitter 350 nm 50/50, flash 100 pulses, delay 60 us, integration 400 us, z-height 2 mm. […] IC50s were derived by non-linear regression analysis. […]", "units": {"IC50": "nM"}}
{"smiles": "Cc1cc(Nc2cc(N[C@@H](C(N)=O)C(C)C)ccc2C(N)=O)sn1", "note": "[Example 11, (R)-4-(1-amino-3-methyl-1-oxobutan-2-ylamino)-2-(3-methylisothiazol-5-ylamino)benzamide]", "IC50": "100 to 1000"}
{"smiles": "CC[C@@H](Nc1nc(Nc2ccc3ccncc3c2)c(C(N)=O)cc1F)C(N)=O", "note": "[Example 98, (R)-6-(1-amino-1-oxobutan-2-ylamino)-5-fluoro-2-(isoquinolin-7-ylamino)nicotinamide]", "IC50": "10 to 100"}
{"smiles": "CC[C@@H](Nc1nc(Nc2cccc(OC)c2)c(C(N)=O)cc1F)C(N)=O", "note": "[Example 231, (R)-6-(1-amino-1-oxobutan-2-ylamino)-5-fluoro-2-(3-methoxyphenylamino)nicotinamide]", "IC50": "10 to 100"}
{"smiles": "NC(=O)c1cc(F)c(N[C@@H]2CCCC[C@@H]2N)nc1Nc1cnc2ncccc2c1", "note": "[Example 150, 2-(1,8-naphthyridin-3-ylamino)-6-((1R,2S)-2-aminocyclohexylamino)-5-fluoronicotinamide]", "IC50": "1 to 10"}
{"smiles": "NC(=O)c1cc(F)c(N[C@@H]2CCCC[C@@H]2N)nc1Nc1cccc2cnccc12", "note": "[Example 74, 6-((1R,2S)-2-aminocyclohexylamino)-5-fluoro-2-(isoquinolin-5-ylamino)nicotinamide]", "IC50": "1 to 10"}
{"smiles": "NC(=O)c1cc(F)c(N[C@@H]2CCCC[C@@H]2N)nc1Nc1ccc2c(c1)OCCO2", "note": "[Example 78]", "IC50": "1 to 10"}
{"smiles": "CCC[C@@H](Nc1nc(Nc2ccc3ncccc3c2)c(C(N)=O)cc1F)C(N)=O", "note": "[Example 200]", "IC50": "10 to 100"}
{"smiles": "CC[C@@H](Nc1ccc(C(N)=O)c(Nc2cc(C)ns2)n1)C(N)=O", "note": "[Example 210]", "IC50": "10 to 100"}
{"smiles": "Cc1cc(Nc2c(C(N)=O)ccc(N[C@H](CC(C)C)C(N)=O)c2F)sn1", "note": "[Example 23, (R)-4-(1-amino-4-methyl-1-oxopentan-2-ylamino)-3-fluoro-2-(3-methylisothiazol-5-ylamino)benzamide]", "IC50": "> 1000"}
{"smiles": "Cn1ncc2c(Nc3nc(N[C@@H]4CCCC(F)(F)[C@@H]4N)c(F)cc3C(N)=O)cccc21", "note": "[Example 387, 6-((1R,2R)-2-amino-3,3-difluorocyclohexylamino)-5-fluoro-2-(1-methyl-1H-indazol-4-ylamino)nicotinamide]", "IC50": "100 to 1000"}
{"smiles": "Cc1cc(Nc2nc(N[C@@H]3CCCC[C@@H]3N)ccc2C(N)=O)sn1", "note": "[Example 182, 6-((1R,2S)-2-aminocyclohexylamino)-2-(3-methylisothiazol-5-ylamino)nicotinamide]", "IC50": "1 to 10"}
{"smiles": "NC(=O)c1cc(F)c(N[C@@H]2CCCC[C@@H]2N)nc1Nc1cc(F)cc(Cl)c1", "note": "[Example 325, 6-((1R,2S)-2-aminocyclohexylamino)-2-(3-chloro-5-fluorophenylamino)-5-fluoronicotinamide]", "IC50": "1 to 10"}
{"smiles": "Cc1cc(Nc2cc(N[C@H](CC3CCCCC3)C(N)=O)ccc2C(N)=O)sn1", "note": "[Example 17, (R)-4-(1-amino-3-cyclohexyl-1-oxopropan-2-ylamino)-2-(3-methylisothiazol-5-ylamino)benzamide]", "IC50": "10 to 100"}
{"smiles": "NC(=O)c1cc(F)c(N[C@@H]2CCCC[C@@H]2N)nc1Nc1cncc2ccccc12", "note": "[Example 71, 6-((1R,2S)-2-aminocyclohexylamino)-5-fluoro-2-(isoquinolin-4-ylamino)nicotinamide]", "IC50": "1 to 10"}
{"smiles": "Cn1ccc2c(Nc3cc(N[C@@H]4CCCC[C@@H]4N)ccc3C(N)=O)cccc21", "note": "[Example 2, 4-((1R,2S)-2-aminocyclohexylamino)-2-(1-methyl-1H-indol-4-ylamino)benzamide]", "IC50": "100 to 1000"}
{"smiles": "NC(=O)c1cc(F)c(N[C@@H]2CCCC[C@@H]2N)nc1Nc1cccc2ncccc12", "note": "[Example 73, 6-((1R,2S)-2-aminocyclohexylamino)-5-fluoro-2-(quinolin-5-ylamino)nicotinamide]", "IC50": "1 to 10"}
{"smiles": "NC(=O)c1cc(F)c(N[C@H]2[C@@H](N)CCCC2(F)F)nc1Nc1cnc2ccccc2c1", "note": "[Example 344, 6-((1S,6S)-6-amino-2,2-difluorocyclohexylamino)-5-fluoro-2-(quinolin-3-ylamino)nicotinamide]", "IC50": "1 to 10"}
{"smiles": "NC(=O)c1ccc(N[C@H](CC2CC2)C(N)=O)nc1Nc1ccc2ncccc2c1", "note": "[Example 213, (R)-6-(1-amino-3-cyclopropyl-1-oxopropan-2-ylamino)-2-(quinolin-6-ylamino)nicotinamide]", "IC50": "1 to 10"}
{"smiles": "Cn1ccc2cc(Nc3nc(N[C@@H]4CCCC[C@@H]4N)ccc3C(N)=O)ccc21", "note": "[Example 397, 6-((1R,2S)-2-aminocyclohexylamino)-2-(1-methyl-1H-indol-5-ylamino)nicotinamide]", "IC50": "1 to 10"}
{"smiles": "NC(=O)c1ccc(N[C@@H]2CCNC2)nc1Nc1ccc2ncccc2c1", "note": "[Example 383, (R)-6-(pyrrolidin-3-ylamino)-2-(quinolin-6-ylamino)nicotinamide]", "IC50": "> 1000"}
{"smiles": "NC(=O)c1cc(F)c(N[C@@H]2CCCC[C@@H]2N)nc1Nc1ccc(-c2ccncn2)cc1", "note": "[Example 59, 6-(1R,2S)-2-aminocyclohexylamino)-5-fluoro-2-(4-(pyrimidin-4-yephenylamino)nicotinamide]", "IC50": "1 to 10"}
{"smiles": "Cc1cc(F)cc(Nc2nc(N[C@@H]3CCCC(F)(F)[C@@H]3N)c(F)cc2C(N)=O)c1", "note": "[Example 339, 6-((1R,2R)-2-amino-3,3-difluorocyclohexylamino)-5-fluoro-2-(3-fluoro-5-methylphenylamino)nicotinamide]", "IC50": "10 to 100"}
{"smiles": "CC[C@@H](Nc1nc(Nc2ccc3nccn3c2)c(C(N)=O)cc1F)C(N)=O", "note": "[Example 229, (R)-6-(1-amino-1-oxobutan-2-ylamino)-5-fluoro-2-(H-imidazo[1,2-a]pyridin-6-ylamino)nicotinamide]", "IC50": "10 to 100"}
{"smiles": "NC(=O)c1cc(F)c(N[C@H](CC2CC2)C(N)=O)nc1Nc1ccc2ncccc2c1", "note": "[Example 252, (R)-6-(1-amino-3-cyclopropyl-1-oxopropan-2-ylamino)-5-fluoro-2-(quinolin-6-ylamino)nicotinamide]", "IC50": "1 to 10"}
{"smiles": "NC(=O)c1ccc(N[C@@H]2CCCC[C@@H]2N)nc1Nc1cncc(-n2nccn2)c1", "note": "[Example 158]", "IC50": "1 to 10"}
{"smiles": "NC(=O)c1cc(F)c(N[C@H]2[C@@H](N)CCCC2(F)F)nc1Nc1cccc(-c2ncccn2)c1", "note": "[Example 342, 6-((1S,6S)-6-amino-2,2-difluorocyclohexylamino)-5-fluoro-2-(3-(pyrimidin-2-yl)phenylamino)nicotinamide]", "IC50": "10 to 100"}
{"smiles": "Cc1cc(Nc2cc(N[C@H](CC(C)C)C(N)=O)ccc2C(N)=O)sn1", "note": "[Example 9, (R)-4-(1-amino-4-methyl-1-oxopentan-2-ylamino)-2-(3-methylisothiazol-5-ylamino)benzamide]", "IC50": "10 to 100"}
{"smiles": "CC[C@@H](Nc1nc(Nc2cncc(C)c2)c(C(N)=O)cc1F)C(N)=O", "note": "[Example 235, (R)-6-(1-amino-1-oxobutan-2-ylamino)-5-fluoro-2-(5-methylpyridin-3-ylamino)nicotinamide]", "IC50": "10 to 100"}
{"smiles": "NC(=O)c1cc(F)c(N[C@@H]2CCCC(F)(F)[C@@H]2N)nc1Nc1cnc2ccccc2c1", "note": "[Example 289, 6-((1R,2R)-2-amino-3,3-difluorocyclohexylamino)-5-fluoro-2-(quinolin-3-ylamino)nicotinamide]", "IC50": "100 to 1000"}
{"smiles": "NC(=O)c1cc(F)c(N[C@@H]2CCCC[C@@H]2N)nc1Nc1cncc(-c2nccs2)c1", "note": "[Example 162, 6-((1R,2S)-2-aminocyclohexylamino)-5-fluoro-2-(5-(thiazol-2-yl)pyridin-3-ylamino)nicotinamide]", "IC50": "1 to 10"}
{"smiles": "Cn1ccc2c(Nc3nc(N[C@@H]4CCCC(F)(F)[C@@H]4N)c(F)cc3C(N)=O)cccc21", "note": "[Example 330, 6-((1R,2R)-2-amino-3,3-difluorocyclohexylamino)-5-fluoro-2-(1-methyl-1H-indol-4-ylamino)nicotinamide]", "IC50": "10 to 100"}
{"smiles": "CC[C@H](CN)Nc1nc(Nc2cncc(OC)c2)c(C(N)=O)cc1F", "note": "[Example 96, (R)-6-(1-aminobutan-2-ylamino)-5-fluoro-2-(5-methoxypyridin-3-ylamino)nicotinamide]", "IC50": "10 to 100"}
{"smiles": "CC(C)n1ccc2c(Nc3nc(N[C@@H]4CCCC(F)(F)[C@@H]4N)c(F)cc3C(N)=O)cccc21", "note": "[Example 391, 6-((1R,2R)-2-amino-3,3-difluorocyclohexylamino)-5-fluoro-2-(1-isopropyl-1H-indol-4-ylamino)nicotinamide]", "IC50": "10 to 100"}
